Results reported in patent US8889724B2, “Tetrazole compounds for reducing uric acid” (Wellstat Therapeutics Corporation, priority 2008, dated 2014).
Several values for one entry are separate records, joined by “and”; a condition that tells them apart may be missing. Equal entries are not always repeated.

Tests used:
[1] = Rat pilot single-dose oral pharmacokinetic study with Compound EB; type: in vivo; conditions: 100 mg/kg single oral gavage; for Compound EB concentration in plasma, individual rats: male Sprague-Dawley rat
Protocol: Rat Pilot Single-Dose Oral Pharmacokinetic Study with Compound EB
Determination of the plasma profile of Compound EB following single oral gavage administration to male rats.
Test compound was suspended in 1% HPMC using a tissue homogenizer to minimize particles and maximize uniformity of the suspension and stored at 4° C. The formulations was thoroughly mixed just prior to administration. A dose of 100 mg/kg of test compounds or vehicle (1% HPMC) was administered to male Sprague-Dawley rats by single oral gavage. […] The blood samples were centrifuged within 30 minutes of collection under refrigeration (2-8° C.) for 7 minutes at 6000 rpm. Following centrifugation, the plasma were harvested into a single tube for each animal at each time point and immediately frozen at −80° C. until analyzed using LC/MS-MS. Serial plasma concentration time data was subjected to pharmacokinetic analyses using WinNonlin Standard (v2.1, Pharsight Corporation) and Microsoft EXCEL.
1. Rats received single oral gavage of Compound EB, 100 mg/kg, and plasma was collected at certain times.
2. Plasma was stored at −80° C. until the day of analysis.
3. Samples were thawed on 37° C. bath for 5 min and vortexed at top speed for 10 sec.
4. Rat plasma, 0.1 mL was mixed with 0.2 mL Acetonitrile, vortexed 1 min, spun down 14000 rpm, 17000 g, at 4° C., for 25 min.
(§1) 5. Supernatants were filtered through 0.45 micron, 4 mm, PTFE membrane syringe filter (Phenomenex # AF0-3102-52), and 13 microL were injected and resolved on Luna 3 micron, 100 A pore, C8(2), 150×3 mm, reverse phase column (Phenomenex#00F-4248-YO, SN#259151-7) in 50 min linear gradient from 40% to 69% of (0.1% Formic Acid, 89.9% Acetonitrile, 10% Methanol) at 0.25 mL/min, 100 bar, 37° C. column temperature, method 406975M1, AGILENT sequence 1015-08A, Agilent 1100 LC-MS.
All samples were run in duplicate, 210 nm and 230 nm Absorbances, Negative and Positive ionization spectrograms were recorded.
Step 1. Plasma from “Vehicle” animals (pooled), 0.19 mL, was mixed with 0.01 mL 20× stock of PN2107 in Methanol to make 500 microM, 250 microM, 125 microM, . . . , concentrations of Compound EB in plasma.
For example: 190 microL plasma+10 microL of 10 mM Compound EB in methanol=0.2 mL plasma with 500 microM Compound EB.
Step 2. Samples from step 1 were vortexed for 10 sec at top speed.
Step 3. 0.4 mL of acetonitrile was added to all samples from Step 2, and all vials were vortexed at top speed for 1 min.
Step 4. All samples from step 3 were spun down 14000 rpm, 17000 g, at 4° C., for 25 min.
as §1, with “Step 5.” for “5.”, “AF0-3102-52),” for “AF0-3102-52), and”, “ml/min,” for “mL/min,”, “temperature.” for “temperature, method 406975M1, AGILENT sequence 1015-08A, Agilent 1100 LC-MS.”

human URAT1 = human URAT1 (Homo sapiens (Human), UniProt Q96S37); test: URAT1 inhibition assay: [8-14C] urate uptake in hURAT1-HEK cells; type: cell-based
Protocol: URAT1 (Uric Acid Transporter 1) is expressed on the apical membrane in renal tubules. It mediates the re-uptake of uric acid from the urine into the blood.
A suitable assay involves transfection of cells (e g human embryonic kidney cells; “HEK”) with a vector encoding human URAT1, followed by determination of the ability of transfected cells to take up radiolabeled uric acid. The activity of compounds as URAT1 inhibitors is evaluated by their ability to block uric acid uptake by transfected cells.
Test Compounds and Chemicals:
Urate (50-60 mCi/mmol; American Radio Chemicals, Cat. No. ARC0513).
Subcloning of hURAT1 into the Expression Vector:
Plasmid vector pCMV6-XL5 containing hURAT1 cDNA (Cat. No. SC125624) and the expression vector pCMV6-Neo (Cat. No. pCMVNEO) were obtained from OriGene Technologies, Inc. The full-length hURAT1 cDNA was obtained from the vector pCMV6-XL5 and subcloned into the expression vector pCMV6-Neo to create the hURAT1 expression plasmid pCMV6-hURAT1. The sequences were verified by automatic DNA sequencing.
Cell Culture, Transfection of URAT1 Expressing Plasmids and the Establishment of Stably Expressing HEK Cells for hURAT1:
For transfection experiments, cells were plated on 60 mm dishes in 1 ml media per dish. […] Stable transfectants expressing hURAT1 (herein after referred as hURAT1-HEK cells) or cells having only the expression vector pCMV6-Neo (herein after referred as mock-HEK cells) were verified using reverse transcription polymerase chain reaction (RT-PCR) methods.
[8-^14C] Urate Uptake Assay:
Before the uptake assay started, the culture medium was removed and the cells were incubated for 5 min in 0.6 ml of HBSS. After that HBSS was removed, the prepared reaction solutions were added into each well and incubated for 5 min at room temperature. Then the reaction solution was removed, cells were washed twice with 0.6 ml of cold HBSS and lysed with 0.2 ml of 0.1 M NaOH for 20 min. […] Test compounds were dissolved in DMSO and the same concentration of DMSO was added into the wells of mock-HEK cells and the hURAT1-HEK cells that didn't contain test compounds. For each test compound, the uptake assay was performed 2 times and carried out in triplicate. Urate uptake of the cells for each test condition was presented as the average percent inhibition in comparison to the DMSO control. The radioactivity values obtained for the wells that contained DMSO were taken as 100% uptake of the cells. The observed concentration-percent inhibition data were fitted to a sigmoidal concentration-effect model, where: % Inhibition=(100*Conc^Slope)/(IC50^Slope+Conc^Slope)
In this example the compounds were not necessarily tested simultaneously.

human URAT1, sequence (Q96S37 whole entry): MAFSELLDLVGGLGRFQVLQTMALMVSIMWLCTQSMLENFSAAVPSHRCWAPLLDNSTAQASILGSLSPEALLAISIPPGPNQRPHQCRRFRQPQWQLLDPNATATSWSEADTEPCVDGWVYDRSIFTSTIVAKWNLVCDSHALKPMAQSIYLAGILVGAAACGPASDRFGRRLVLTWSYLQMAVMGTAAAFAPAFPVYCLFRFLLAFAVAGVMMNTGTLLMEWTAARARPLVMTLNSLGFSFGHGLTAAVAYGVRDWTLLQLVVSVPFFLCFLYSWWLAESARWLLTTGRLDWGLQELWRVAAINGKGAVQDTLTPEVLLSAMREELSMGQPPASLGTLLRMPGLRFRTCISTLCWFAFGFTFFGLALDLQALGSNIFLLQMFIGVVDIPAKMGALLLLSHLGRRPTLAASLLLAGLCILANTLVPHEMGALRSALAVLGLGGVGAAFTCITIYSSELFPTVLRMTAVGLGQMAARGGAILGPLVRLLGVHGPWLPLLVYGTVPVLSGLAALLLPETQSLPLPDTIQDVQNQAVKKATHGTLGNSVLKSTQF

In the case of `Cc1cccc(C)c1COc1cccc(-c2nnn[nH]2)c1` [Compound EB, 5-(3-(2,6-Dimethylbenzyloxy)phenyl)-1H-tetrazole], the “Detection in rat plasma (in words)” value ([1]; LC-MS) is reported as “readily detected”, the Cmax ([1]; Sprague-Dawley, rat, male rats, plasma) is reported as 108 µg/mL and the AUC(0-t) ([1]; Sprague-Dawley, rat, male rats, plasma, read-out: AUC 0-24) is reported as 566 µg·h/mL. For the same compound, the half-life ([1]; Sprague-Dawley, rat, male rats, plasma, read-out: T ½) was 3.99 h, the “Compound EB concentration in plasma, individual rats” value (from here on “Compound EB concentration in plasma”) ([1]; 1 HR) was 386 µM and 103 µM and the “Compound EB concentration in plasma” value ([1]; 2 HR) was 75 µM and 206 µM. The “Compound EB concentration in plasma” value ([1]; 4 HR) was 24 µM and 112 µM, the “Compound EB concentration in plasma” value ([1]; 6 HR) was 26 µM and 92 µM and the “Compound EB concentration in plasma” value ([1]; 8 HR) was 72 µM and 202 µM. For the same compound, the “Compound EB concentration in plasma” value ([1]; 24 HR) was 0 µM and 17 µM, the “Compound EB concentration in plasma” value ([1]; 15 min) was 184 µM and 159 µM and the “Compound EB concentration in plasma” value ([1]; 30 min) was 37 µM and 125 µM. For the same compound, the concentration at 0 h ([1]; male, Sprague-Dawley, rat plasma, time 0, read-out: Compound EB concentrations, averages) was 0 nM and 0 ng/mL, the concentration at 0.25 h ([1]; male, Sprague-Dawley, rat plasma, time 0.25, read-out: Compound EB concentrations, averages) was 172 µM and 48000 ng/mL and the concentration at 0.5 h ([1]; male, Sprague-Dawley, rat plasma, time 0.5, read-out: Compound EB concentrations, averages) was 81 µM and 22700 ng/mL. The concentration at 1 h ([1]; male, Sprague-Dawley, rat plasma, time 1, read-out: Compound EB concentrations, averages) was 244 µM and 68500 ng/mL, the concentration at 2 h ([1]; male, Sprague-Dawley, rat plasma, time 2, read-out: Compound EB concentrations, averages) was 140 µM and 39300 ng/mL and the concentration at 4 h ([1]; male, Sprague-Dawley, rat plasma, time 4, read-out: Compound EB concentrations, averages) was 68 µM and 19000 ng/mL. For the same compound, the concentration at 6 h ([1]; male, Sprague-Dawley, rat plasma, time 6, read-out: Compound EB concentrations, averages) was 59 µM and 16500 ng/mL, the concentration at 8 h ([1]; male, Sprague-Dawley, rat plasma, time 8, read-out: Compound EB concentrations, averages) was 137 µM and 38400 ng/mL and the concentration at 24 h ([1]; male, Sprague-Dawley, rat plasma, time 24, read-out: Compound EB concentrations, averages) was 8.5 µM and 2380 ng/mL. The inhibition at 10 µM (human URAT1; 10 μM, hURAT1-HEK cells) was 90% and the IC50 (human URAT1; 14C urate uptake in hURAT1-HEK cells) was 930 nM.
